The source of these data is PMC11628397 (Nature Synthesis, 2024).

Structures are written as SMILES. ≈ marks a conversion by molar mass, not a printed value.

Data set [1] in a line: metabolic stability in human liver microsomes. Background: Liver microsomes are a subcellular fraction often used to study metabolism.
A short description of data set [2]: kinetic solubility in phosphate-buffered saline, pH 7.4. The conditions noted are these: pH 7.4, aqueous buffer, kinetic from dmso stock. The class given is physicochemical.
The test system of data set [3] is human cancer cell line MCF-7. The data set can be described thus: resazurin reduction assay, growth inhibition of MCF-7. The class given is cell-based. The conditions noted are these: MCF7, read-out: IC50, inhibition of the growth of MCF-7.
Data set [4] concerns human cancer cell line MCF-7. Conditions: MCF-7 human cancer cell line; cited from earlier work.
The test system of data set [5] is MCF-7 cells. The conditions noted are these: cited from earlier work.

Broadly, the kinetic solubility is solubility judged after dilution from a stock solution rather than from solid. In the case of `CCOC(=O)c1ccc(N)cc1` [Benzocaine], the “CLint, metabolic stability (as printed in text)” value in data set [1] is 83 mg/min/µL. For the same compound, the kinetic solubility in data set [2] came to 385 µM (≈ 63.6 µg/mL).
One may read the IC50 as the concentration needed to halve the response being measured. Regarding `CC(C)(C)c1ccc(CN2CCN(C(c3ccccc3)c3ccc(Cl)cc3)CC2)cc1` (stereo not drawn) [Buclizine], in data set [3], the IC50 was 31.3 ± 7.8 µM. Moreover, in data set [4], the “effect on cell growth (in words)” value is given as “cytostatic effect”. In addition, in data set [5], the “cell differentiation, intracellular lipid droplets (in words)” value is on record as “induced cell differentiation”. This compound also came in with a solubility (kinetic) in data set [2] of at most 1 µM.
